Values of other authors, collected in article PMC6606825 (Journal of Ginseng Research, 2018).

What was measured:
[1] = tested on: cytochrome P450 enzymes (CYPs); settings: in vitro; ref unpublished; cited from earlier work
[2] = PK data in animals and healthy individuals; cited from earlier work

CC(C)=CCC[C@](C)(O[C@@H]1O[C@H](CO)[C@@H](O)[C@H](O)[C@H]1O)[C@H]1CC[C@]2(C)[C@@H]1[C@H](O)C[C@@H]1[C@@]3(C)CC[C@H](O)C(C)(C)[C@@H]3CC[C@]12C [Ginsenoside compound K, 20-O-beta-D-glucopyranosyl-20(S)-protopanaxadiol]
effects of CYPs on CK [1]: minimal effects
oral bioavailability [2]: poor oral bioavailability
